In patent US9833497B2, “Human originated EGF domain proteins and use of the same” (CHENGDU SOURCEBIO LIMITED-LIABILITY COMPANY, priority 2013, dated 2017):

Columns and labels:
Assay type in all cases: cell-based
[1] = system: Moraxella catarrhalis; assay: MIC against Gram-negative bacteria: Moraxella catarrhalis
In short: (§1)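 Two-fold serial dilutions of each purified human EGF domain protein, three replicate wells per level, were combined with bacteria at a final 5×10^5 CFU/mL in LB. Cultures were shaken at 175 rpm, 37° C. The MIC was taken as the minimum concentration preventing growth.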

[2] = system: Proteus mirabilis; assay: MIC against Gram-negative bacteria: Proteus mirabilis
In short: as §1

[3] = system: Klebsiella pneumonia; assay: MIC against Gram-negative bacteria: Klebsiella pneumonia
In short: as §1

[4] = system: Enterobacter cloacae; assay: MIC against Gram-negative bacteria: Enterobacter cloacae
In short: as §1

[5] = system: E. coli BL21; assay: MIC against Gram-negative bacteria: E. coli BL21
In short: as §1

[6] = system: Proteus vulgaris; assay: MIC against Gram-negative bacteria: Proteus vulgaris
In short: as §1

[7] = system: Pseudomonas aeruginosa; assay: MIC against Gram-negative bacteria: Pseudomonas aeruginosa
In short: as §1

[8] = system: E. coli DH5α; assay: Antibacterial activity: MIC and growth curve against E. coli DH5α in 96-well plate; settings: minimal inhibitory concentration against E. coli DH5α; 96-well plate, 5×10^5 CFU/mL, 37° C., judged after 8 h
In short: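 MIC taken as lowest protein level with no bacterial growth, tracked by A600 every 30 min during 37 °C, 175 rpm culture. Two-fold protein series 50-12.5 μg/mL final, triplicate wells, against 5×10^5 CFU/mL of LB-washed mid-log cells.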

[9] = system: Serratia marcescens; assay: MIC against Gram-negative bacteria: Serratia marcescens
In short: as §1

[10] = system: Citrobacter diversus; assay: MIC against Gram-negative bacteria: Citrobacter diversus
In short: as §1

[11] = system: Aeromonas hydrophila; assay: MIC against Gram-negative bacteria: Aeromonas hydrophila
In short: as §1

[12] = Moraxella catarrhalis, 5×10^5 CFU/mL, 10 h cultivation at 37° C.
[13] = Proteus mirabilis, 5×10^5 CFU/mL, 10 h cultivation at 37° C.
[14] = Klebsiella pneumonia, 5×10^5 CFU/mL, 10 h cultivation at 37° C.
[15] = Enterobacter cloacae, 5×10^5 CFU/mL, 10 h cultivation at 37° C.
[16] = E. coli BL21, 5×10^5 CFU/mL, 10 h cultivation at 37° C.
[17] = Proteus vulgaris, 5×10^5 CFU/mL, 10 h cultivation at 37° C.
[18] = Pseudomonas aeruginosa, 5×10^5 CFU/mL, 10 h cultivation at 37° C.
[19] = Serratia marcescens, 5×10^5 CFU/mL, 10 h cultivation at 37° C.
[20] = Citrobacter diversus, 5×10^5 CFU/mL, 10 h cultivation at 37° C.
[21] = Aeromonas hydrophila, 5×10^5 CFU/mL, 10 h cultivation at 37° C.
[22] = 96-well plate, 5×10^5 CFU/mL, 37° C., 10 h
[23] = 10 h cultivation at 37° C., 5×10^5 CFU/mL, two-fold serial dilution

PRT912 (DVNECLSNPCDARGTQNCVQRVNDFHCECRAGHTGRRCE; listed as Homo sapiens)
MIC ([1]; M. catarrhalis, 10 h cultivation at 37° C.): 12.5 µg/mL
MIC ([2]; P. mirabilis, 10 h cultivation at 37° C.): 50 µg/mL
MIC ([3]; K. pneumonia, 10 h cultivation at 37° C.): 50 µg/mL
MIC ([4]; E. cloacae, 10 h cultivation at 37° C.): 25 µg/mL
MIC ([5]; E. coli BL21, 10 h cultivation at 37° C.): 12.5 µg/mL
MIC ([6]; P. vulgaris, 10 h cultivation at 37° C.): 100 µg/mL
MIC ([7]; P. aeruginosa, 10 h cultivation at 37° C.): 25 µg/mL
MIC [8]: 25 µg/mL
MIC ([9]; S. marcescens, 10 h cultivation at 37° C.): 50 µg/mL
MIC ([10]; C. diversus, 10 h cultivation at 37° C.): 50 µg/mL
MIC ([11]; A. hydrophila, 10 h cultivation at 37° C.): 100 µg/mL

PRT1392 (TELCTMECGSHGVCSRGICQCEEGWVGPTC; listed as Homo sapiens)
MIC against M. catarrhalis [1, 12]: 25 µg/mL
MIC against P. mirabilis [2, 13]: 12.5 µg/mL
MIC against K. pneumonia [3, 14]: 25 µg/mL
MIC against E. cloacae [4, 15]: 12.5 µg/mL
MIC against E. coli BL21 [5, 16]: 25 µg/mL
MIC against P. vulgaris [6, 17]: 25 µg/mL
MIC against P. aeruginosa [7, 18]: 12.5 µg/mL
MIC [8]: 12.5 µg/mL
MIC against S. marcescens [9, 19]: 50 µg/mL
MIC against C. diversus [10, 20]: 12.5 µg/mL
MIC against A. hydrophila [11, 21]: 25 µg/mL

PRT734 (NNNPCLENNGGCSHLCFALPGLHTPKCDCAFGTLQSDGKNCA; listed as Homo sapiens)
MIC M. catarrhalis [1, 22]: 12.5 µg/mL
MIC P. mirabilis [2, 22]: 25 µg/mL
MIC K. pneumonia [3, 22]: 50 µg/mL
MIC E. cloacae [4, 22]: 12.5 µg/mL
MIC E. coli BL21 [5, 22]: 12.5 µg/mL
MIC P. vulgaris [6, 22]: 25 µg/mL
MIC P. aeruginosa [7, 22]: 25 µg/mL
MIC [8]: 50 µg/mL
MIC S. marcescens [9, 22]: 50 µg/mL
MIC C. diversus [10, 22]: 25 µg/mL
MIC A. hydrophila [11, 22]: 50 µg/mL

PRT1415 (PRATCLDQCSGHGTFLPDTGLCSCDPSWTGHDCS; listed as Homo sapiens)
MIC against M. catarrhalis [1, 12]: 25 µg/mL
MIC against P. mirabilis [2, 13]: 12.5 µg/mL
MIC against K. pneumonia [3, 14]: 12.5 µg/mL
MIC against E. cloacae [4, 15]: 25 µg/mL
MIC against E. coli BL21 [5, 16]: 12.5 µg/mL
MIC against P. vulgaris [6, 17]: 25 µg/mL
MIC against P. aeruginosa [7, 18]: 25 µg/mL
MIC [8]: 25 µg/mL
MIC against S. marcescens [9, 19]: 50 µg/mL
MIC against C. diversus [10, 20]: 50 µg/mL
MIC against A. hydrophila [11, 21]: 25 µg/mL

PRT468 (LCTPRCMNGGLCVTPGFCICPPGFYGVNCD; listed as Homo sapiens)
MIC against M. catarrhalis [1, 22]: 12.5 µg/mL
MIC against P. mirabilis [2, 22]: 50 µg/mL
MIC against K. pneumonia [3, 22]: 50 µg/mL
MIC against E. cloacae [4, 22]: 25 µg/mL
MIC against E. coli BL21 [5, 22]: 12.5 µg/mL
MIC against P. vulgaris [6, 22]: 12.5 µg/mL
MIC against P. aeruginosa [7, 22]: 25 µg/mL
MIC [8]: 25 µg/mL
MIC against S. marcescens [9, 22]: 50 µg/mL
MIC against C. diversus [10, 22]: 50 µg/mL
MIC against A. hydrophila [11, 22]: 12.5 µg/mL

PRT1095 (EVQWCGFSPCPHGAQCQPVLQGFECIANAVFNGQSGQ; listed as Homo sapiens)
MIC M. catarrhalis [1, 23]: 50 µg/mL
MIC P. mirabilis [2, 23]: 25 µg/mL
MIC K. pneumonia [3, 23]: 25 µg/mL
MIC E. cloacae [4, 23]: 12.5 µg/mL
MIC E. coli BL21 [5, 23]: 12.5 µg/mL
MIC P. vulgaris [6, 23]: 12.5 µg/mL
MIC P. aeruginosa [7, 23]: 50 µg/mL
MIC [8]: 50 µg/mL
MIC S. marcescens [9, 23]: 50 µg/mL
MIC C. diversus [10, 23]: 25 µg/mL
MIC A. hydrophila [11, 23]: 25 µg/mL

PRT128 (CLPSYCEHGGECSQSWDTFSCDCLGTGYTGETC; listed as Homo sapiens)
MIC (μg/mL) M. catarrhalis ([1]; Moraxella catarrhalis, 96-well plate, 5×10^5 CFU/mL, 37° C., 10 h): 12.5 µg/mL
MIC (μg/mL) P. mirabilis ([2]; Proteus mirabilis, 96-well plate, 5×10^5 CFU/mL, 37° C., 10 h): 12.5 µg/mL
MIC (μg/mL) K. pneumonia ([3]; Klebsiella pneumonia, 96-well plate, 5×10^5 CFU/mL, 37° C., 10 h): 25 µg/mL
MIC (μg/mL) E. cloacae ([4]; Enterobacter cloacae, 96-well plate, 5×10^5 CFU/mL, 37° C., 10 h): 12.5 µg/mL
MIC (μg/mL) E. coli BL21 ([5]; E. coli BL21, 96-well plate, 5×10^5 CFU/mL, 37° C., 10 h): 25 µg/mL
MIC (μg/mL) P. vulgaris ([6]; Proteus vulgaris, 96-well plate, 5×10^5 CFU/mL, 37° C., 10 h): 12.5 µg/mL
MIC (μg/mL) P. aeruginosa ([7]; Pseudomonas aeruginosa, 96-well plate, 5×10^5 CFU/mL, 37° C., 10 h): 12.5 µg/mL
MIC [8]: 12.5 µg/mL
MIC (μg/mL) S. marcescens ([9]; Serratia marcescens, 96-well plate, 5×10^5 CFU/mL, 37° C., 10 h): 50 µg/mL
MIC (μg/mL) C. diversus ([10]; Citrobacter diversus, 96-well plate, 5×10^5 CFU/mL, 37° C., 10 h): 12.5 µg/mL
MIC (μg/mL) A. hydrophila ([11]; Aeromonas hydrophila, 96-well plate, 5×10^5 CFU/mL, 37° C., 10 h): 12.5 µg/mL
